Laboratory results as given in patent publication US8367328B2, “Method for synthesizing DNA” (Takara Bio Inc., priority 1998, dated 2013).

System: ExTaq DNA Polymerase
Experiment: PCR with ExTaq DNA Polymerase in the presence of cationic complexes
Type: biochemical
Settings: for Amount of amplified DNA relative to No Addition (=1), ExTaq: 100 pg E. coli JM109 genomic DNA, primers Eco1/Eco2, 30 cycles 98°C 5 s–68°C 1 min, FM-BIO 100
Description: Using hexaamminecobalt (III) chloride ([Co(NH3)6]Cl3) (manufactured by Sigma), tris(ethylenediamine)cobalt (III) chloride ([Co(C2H8N2)3]Cl3) (manufactured by Aldrich), or tris(ethylenediamine)rhodium (III) trichloride•trihydrate ([Rh(C2H8N2)3]Cl3.3H2O) (manufactured by Aldrich), the effects on the amplification reaction by various kinds of DNA polymerases were examined. As the DNA polymerases, TaKaRa Taq DNA Polymerase (hereinafter referred to as “Taq DNA Polymerase” manufactured by Takara Shuzo Co., Ltd.), Pyrobest DNA Polymerase (manufactured by Takara Shuzo Co., Ltd.) and Ex Taq DNA Polymerase (manufactured by Takara Shuzo Co., Ltd.) were used.
A reaction mixture comprising Escherichia coli JM109 genomic DNA as a template, primers Eco1 and Eco2 as a primer pair, and DNA polymerase was prepared, and PCR was carried out. The compositions of the reaction mixture for each enzyme are as follows.
a reaction mixture comprising 5 μl of 10-fold concentrated buffer for TaKaRa ExTaq DNA Polymerase (manufactured by Takara Shuzo Co., Ltd.), 0.2 mM each of dATP, dCTP, dGTP and dTTP, 100 pg of Escherichia coli JM109 genomic DNA, 1.25 U of TaKaRa EX-Taq DNA Polymerase, and 10 pmol each of primers Eco1 and Eco2 (a final volume being 50 μl).
Further, an aqueous solution of the above-mentioned complexes each so as to have a final concentration of 50 μM, 100 μM, or 200 μM was added to the above reaction mixture.
The reaction was carried out in Fast mode by using TaKaRa PCR Thermal Cycler Personal (manufactured by Takara Shuzo Co., Ltd.). The reaction conditions are as follows. When using Taq DNA Polymerase and Pyrobest DNA Polymerase, the reaction in 30 cycles was carried out for each of these reaction mixtures, wherein one cycle of reaction comprises a process consisting of 98° C., 5 seconds—68° C., 2 minutes, and when using ExTaq DNA Polymerase, the reaction in 30 cycles was carried out for each of these reaction mixtures, wherein one cycle of reaction comprises a process consisting of 98° C., 5 seconds—68° C., 1 minute. After the termination of the reaction, 5 μl of the resulting reaction mixture was subjected to electrophoresis on 2% agarose gel containing ethidium bromide in an amount of 0.00005%. The gel after the electrophoresis was subjected to ultraviolet irradiation to visualize the band ascribed to the amplified product, whereby an amplified fragment was confirmed. The amount of amplified DNA was numerically explained by using a fluorescent image analyzer FM-BIO 100 (manufactured by Takara Shuzo Co., Ltd.). […]
After the termination of the reaction, 5 μL of the resulting reaction mixture was subjected to electrophoresis on 2% agarose gel containing ethidium bromide in an amount of 0.00005%. The gel after the electrophoresis was subjected to ultraviolet irradiation to visualize the band ascribed to the amplified product, whereby an amplified fragment was confirmed.
The DNA polymerases used and the composition for the reaction mixture were similar to those in Example 17, except for the cationic complex, where in cases of using Taq DNA Polymerase and Pyrobest DNA Polymerase, hexaamminecobalt (III) chloride was added so as to have a final concentration of 100 μM, or in a case of using ExTaq DNA Polymerase, hexaamminecobalt (III) chloride was added so as to have a final concentration of 50 μM, respectively. Further, the amount of template DNA was added so as to be 1 pg, 5 pg, 10 pg, 100 pg, or 1 ng, respectively.
The reaction was carried out in Fast mode by using TaKaRa PCR Thermal Cycler Personal. The reaction conditions are as follows. When using Taq DNA Polymerase and Pyrobest DNA Polymerase, the reaction in 30 cycles was carried out, wherein one cycle of reaction comprises a process consisting of 98° C., 5 seconds—68° C., 2 minutes. When using ExTaq DNA Polymerase, the reaction in 30 cycles was carried out, wherein one cycle of reaction comprises a process consisting of 98° C., 5 seconds—68° C., 1 minute. […]

| SMILES | Amount of amplified DNA relative to No Addition (=1), ExTaq (complex 50 μM) | Amount of amplified DNA relative to No Addition (=1), ExTaq (complex 100 μM) | Amplification with one-half the usual enzyme amount versus usual amount without addition (ExTaq 0.625 U + 50 μM complex vs 1.25 U without addition) | Primer amount with which a fragment can still be amplified (ExTaq, 50 μM complex, primers 2–20 pmol tested, no amplification without addition) [pmol] | Amount of template DNA at which amplification was still possible (ExTaq, 50 μM complex, templates 1 pg–1 ng tested, no amplification at 1 pg without addition) [pg] | Amplification in low-magnesium reaction mixture (ExTaq, 1.25 mM magnesium chloride (usual 2 mM), 10 μM complex, no amplification without addition) | Amount of amplified DNA relative to No Addition (=1), ExTaq (complex 200 μM) |
| --- | --- | --- | --- | --- | --- | --- | --- |
| NCCN.NCCN.NCCN.[Cl-].[Cl-].[Cl-].[Co+3] [[Co(H2NCH2CH2NH2)3]Cl3, tris(ethylenediamine)cobalt (III) chloride] | 2.0 | 2.0 | – | – | – | – | – |
| N.N.N.N.N.N.[Cl-].[Cl-].[Cl-].[Co+3] [[Co(NH3)6]Cl3, hexaamminecobalt (III) chloride] | 1.9 | 1.9 | almost the same level | 2.5 | 1 | allowed to amplify | – |
| NCCN.NCCN.NCCN.O.O.O.[Cl][Rh]([Cl])[Cl] [[Rh(H2NCH2CH2NH2)3]Cl3, tris(ethylenediamine)rhodium (III) trichloride•trihydrate] | 1.3 | 1.5 | – | – | – | – | 1.7 |
